Source: patent US10906904B2, “ADO-resistant cysteamine analogs and uses thereof” (HORIZON ORPHAN LLC, priority 2015, dated 2021)
Read-outs that look alike come from different tables or passages of the source.

Tests used:
[1] = Cystine reactivity assay; details: 30° C., percentage of 3 mM cysteamine
Procedure: Cystine reactivity was assessed by incubating 3 mM test compound with 100 nM BODIPY® FL L-Cystine (Life Tech.) at 30° C., pH 7.4 in phosphate buffer. […] Compound cystine reactivity was expressed as a percentage of that of 3 mM cysteamine.
Under resting conditions, the inherent fluorescence of BODIPY® FL L-cystine was very low due to the spatial proximity of the two BODIPY molecules causing quenching. Under chemical reaction (disruption of the S—S bond), the spatial distance was increased, the quenching lost, and measured fluorescence increased. Time (minutes) vs. fluorescence (relative fluorescence units—RFU) was plotted and linear regression analysis was performed to generate a slope value corresponding to the reaction rate in RFU/min and an R2 value.

[2] = system: cystinotic human fibroblasts; assay: Cystine depletion assay; assay type: cell-based; details: Homo sapiens, Fibroblast, 1 h, relative to cystine depletion by cysteamine (100%) at a similar concentration
Procedure: The ability of test compounds to deplete cystine from cystinotic human fibroblasts (Coriell) was determined by incubating compounds with cells for 60 min at 37° C., 95% (v/v) air/5% (v/v) CO2 in Minimal Essential Media Eagle. Treated cell samples were subsequently harvested, then homogenized to ensure plasma and lysosomal membrane disruption. Protein was removed by acid precipitation and cystine in the supernatant measured using LC-MS/MS and HILIC chromatography. Protein levels were determined and cystine levels reported as nM per mg/ml protein. Cystine levels after test compound treatment were expressed as a percentage of that of untreated control cells.
Compounds were assayed at a concentration of 50 μM or 100 μM according to the general methods described above.
Cystine depletion levels for the compounds are expressed in Table 4 as a percent relative to the cystine depletion achieved by cysteamine (c.f. cysteamine 100%) at a similar concentration.
Cystine depletion levels for each of the compounds in Table 5 are expressed as a percent relative to the cystine depletion achieved by cysteamine (c.f. cysteamine 100%) at a similar concentration.

[3] = target: T1, human recombinant ADO (Homo sapiens, UniProt Q96SZ5); assay type: in vitro ADME
T1 sequence (Q96SZ5 1-270): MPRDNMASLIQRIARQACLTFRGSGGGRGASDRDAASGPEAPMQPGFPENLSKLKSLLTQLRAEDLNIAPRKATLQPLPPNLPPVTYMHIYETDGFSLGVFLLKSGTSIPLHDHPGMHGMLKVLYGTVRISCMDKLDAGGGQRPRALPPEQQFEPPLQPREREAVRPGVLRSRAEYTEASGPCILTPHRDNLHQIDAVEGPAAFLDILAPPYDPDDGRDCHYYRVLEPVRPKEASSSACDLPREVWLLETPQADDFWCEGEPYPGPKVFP
Procedure: The rate of ADO metabolism was determined by incubating 15 mM test compound with 60 μg/ml human recombinant ADO and 20 nM MitoXpress® O2-sensitive fluorescent probe (Luxcel) at 37° C. in assay buffer/salt in a sealed assay chamber. The initial rate of fluorescence (excitation λ380 nm and emission λ650 nm) increase was used to measure ADO-dependent oxygen depletion activity. The ability of ADO to metabolize compounds and concomitantly consume oxygen was expressed relative to that of 15 mM cysteamine.

[4] = system: St-HdhQ^111/111 cells; assay: Glutamate-induced neuronal excitotoxicity assay; assay type: cell-based; details: STHdhQ111, 6 mM L-glutamate 24 hours, % of effect of 100 μM cysteamine; for viability at 10 µM: read-out: HdhQ^111/111 cell % survival (mean ± STD) Test Conc. 10 μM; for viability at 100 µM: read-out: HdhQ^111/111 cell % survival (mean ± STD) Test Conc. 100 μM
Procedure: The ability of test compounds to inhibit glutamate-induced excitotoxicity (neuroprotection) in St-HdhQ^111/111 cells was determined by incubating compounds with cells for 60 min at 33° C., 95% (v:v) air/5% (v:v) CO2 in Dulbecco's Modified Eagle Media. Following this, excitotoxicity was induced by the addition of 6 mM L-glutamate for 24 hours. Cell viability was assessed by measuring ATP levels using a luminescent-based CellTitre Glo assay (Promega). Compound neuroprotection (% cell survival) was expressed as a % of the effect recorded with 100 μM cysteamine (denoted as 100% cell survival).

[5] = Table 4, read-out: Cystine Depletion (%)
[6] = Table 5, read-out: Cystine Depletion (%) Mean Value

Structure (SMILES) | Cystine Reactivity Assay (30° C.) (%) Mean Value ([1]; Table 4) | Emax [2, 5] [%] | ADO Metabolism Assay (%) Mean Value ([3]; human, 15 mM) | viability at 10 µM [4] [%] | viability at 100 µM [4] [%] | Cystine Reactivity Assay (30° C.) (%) Mean Value ([1]; Table 5) | Emax [2, 6] [%] | ADO Metabolism Assay (%) Mean Value ([3]; Table 5, relative to 15 mM cysteamine) [%]
SC1CCCNC1 (centres unmarked) [Compound 42208] | >90% | 102 | <25% |  |  |  |  | 
NC1CC(S)C1 (centres unmarked) [Compound 42209] | 59-90% | 99 | <25% |  |  |  |  | 
SC[C@H]1CCCN1 [Compound 42211] | >90% | 79 | <25% | 2 ± 9 | 84 ± 19 |  |  | 
SCc1ccccn1 [Compound 42213] | >90% | 0 | >75% |  |  |  |  | 
S[C@H]1CCCNC1 [Compound 42247] | >90% | 96 | <25% | 5 ± 8 | 84 ± 13 |  |  | 
S[C@@H]1CCCNC1 [Compound 42248] | >90% | 103 | <25% | 2 ± 7 | 81 ± 6 |  |  | 
SC1CCCCNC1 (centres unmarked) [Compound 42345] | >90% | 50 | <25% |  |  |  |  | 
CC1(S)CCCNC1 (centres unmarked) [Compound 42388] | >90% | 97 | <25% | 5 ± 6 | 91 ± 5 | >90% | 63 | 
SC12CCN(CC1)CC2 [Compound 42389] | 50-90% | 36 | <25% |  |  |  |  | 
N[C@H]1C[C@@H](S)C1 [Compound 42457] | 59-90% | 108 | <25% | 6 ± 5 | 91 ± 6 | 50-90% | 77 | 
N[C@H]1C[C@H](S)C1 [Compound 42460] | 59-90% | 111 | <25% | 3 ± 5 | 95 ± 9 |  |  | 
CCOC(=O)C1(S)CCCNC1 (centres unmarked) [Compound 42493] | 50-90% | 74 | <25% | 6 ± 10 | 87 ± 10 |  |  | 
SC1CC2CCC(C1)N2 (centres unmarked) [Compound 42494] | 59-90% | 88 | <25% | 0 | 28 ± 17 |  |  | 
SC1CC2(CNC2)C1 [Compound 42611] | >90% | 55 | <25% |  |  |  |  | 
C[C@H]1CC[C@H](S)CN1 [Compound 42613] | >90% | 109 | <25% |  |  |  |  | 
C[C@H]1CNCC[C@@H]1S [Compound 42614] |  | 117 | <25% | 2 ± 6 | 59 ± 12 |  |  | 
C[C@@H]1CNCC[C@@H]1S [Compound 42615] | <50% | 106 | <25% |  |  |  |  | 
S[C@H]1CCNC1 [Compound 42616] | 59-90% | 79 | <25% | 5 ± 7 | 56 ± 7 |  |  | 

Structure (SMILES) | Cystine Reactivity Assay (30° C.) (%) Mean Value ([1]; Table 4) | Emax [2, 5] [%] | ADO Metabolism Assay (%) Mean Value ([3]; human, 15 mM) | viability at 10 µM [4] [%] | viability at 100 µM [4] [%] | Cystine Reactivity Assay (30° C.) (%) Mean Value ([1]; Table 5) | Emax [2, 6] [%] | ADO Metabolism Assay (%) Mean Value ([3]; Table 5, relative to 15 mM cysteamine) [%]
S[C@@H]1CCNC1 [Compound 42617] | 59-90% | 101 | <25% | 7 ± 10 | 89 ± 7 |  |  | 
NCCCNCCS [Compound 145564] |  |  | 25-75% |  |  | >90% | 36 | 
O=S(=O)([O-])CCS.[Na+] [Compound 145566] |  |  |  |  |  | <50% | 16 | <25
CC(C)(C)N1CCC(S)CC1 [Compound 145584] |  |  | <25% |  |  | >90% | 0 | 
SCC1CCNCC1 [Compound 145586] |  |  | <25% | 9 ± 6 | 89 ± 9 | 50-90% | 21 | 
N[C@H]1C[C@@H](CS)C1 [Compound 145587] |  |  | <25% | 52 ± 9 | 97 ± 7 | >90% | 13 | 
SCC1CCCNC1 (centres unmarked) [Compound 145588] |  |  | <25% | 9 ± 9 | 98 ± 5 | >90% | 31 | 
SC[C@H]1CCCCN1 [Compound 145590] |  |  | <25% | 14 ± 7 | 90 ± 11 | >90% | 104 | 
SCC1COCCN1 (centres unmarked) [Compound 145591] |  |  | <25% |  |  | 50-90% | 61 | 
OC1(CS)CCNCC1 [Compound 145610] |  |  | <25% | 11 ± 8 | 87 ± 10 | <50% | 11 | 
CCN1CCCC1 [Compound 145611] |  |  | <25% | 24 ± 13 | 94 ± 8 | <50% | 9 | 
NC1CCCC(S)C1 (centres unmarked) [Compound 145693] |  |  | <25% |  |  | 50-90% | 81 | 
CS(=O)(=O)N1CCNC(CS)C1 (centres unmarked) [Compound 145694] |  |  | <25% | 2 ± 10 | 15 ± 15 | >90% | 0 | 
OCCC1(S)CNC1 [Compound 145695] |  |  | <25% | 8 ± 10 | 74 ± 10 | >90% | 0 | 
CNC1CC(S)C1 (centres unmarked) [Compound 149608] |  |  | <25% |  |  | <50% | 55 | 
CN[C@H]1C[C@H](S)C1 [Compound 149609] |  |  | <25% |  |  | <50% | 50 | 
NC1CC(O)(CS)C1 (centres unmarked) [Compound 149610] |  |  | <25% |  |  | <50% | 15 | 
OCC1(S)CCCNC1 (centres unmarked) [Compound 150730] |  |  | <25% |  |  | >90% | 14 | 
